PMC6123788, “Down-regulation of cathepsin S and matrix metalloproteinase-9 via Src, a non-receptor tyrosine kinase, suppresses triple-negative breast cancer growth and metastasis” (Experimental & Molecular Medicine, 2018)
pIC50: −log10 of the molar value.

Assays:
Assay type in all cases: biochemical
CTSS [1] = target: T1, CTSS (Homo sapiens, UniProt P25774); experiment: fluorometric CTSS screening kit (BioVision K149), AFC substrate
Src [2] = target: T2, Src (Homo sapiens, UniProt P12931); experiment: CycLex c-Src kinase assay (IC90); supported by DARTS in MDA-MB-231 lysate
T2 construct: recombinant catalytic domain of c-Src

CTSS [3] = target: T1, CTSS; experiment: fluorometric CTSS screening kit (BioVision K149), positive control
CTSS [4] = target: T1, CTSS; experiment: fluorometric CTSS screening kit (BioVision K149), AFC substrate; remark: listed apart in the source
Src [5] = target: T2, Src; experiment: CycLex c-Src kinase assay (IC90)

T1 sequence (P25774 115-331): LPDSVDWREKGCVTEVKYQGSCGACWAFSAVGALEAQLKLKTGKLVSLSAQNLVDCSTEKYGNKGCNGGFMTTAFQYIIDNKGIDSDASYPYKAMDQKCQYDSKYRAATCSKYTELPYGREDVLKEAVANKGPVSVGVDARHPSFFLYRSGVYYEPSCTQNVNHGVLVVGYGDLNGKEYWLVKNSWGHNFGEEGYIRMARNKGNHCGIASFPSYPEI
T2 sequence (P12931 254-536 limits assumed): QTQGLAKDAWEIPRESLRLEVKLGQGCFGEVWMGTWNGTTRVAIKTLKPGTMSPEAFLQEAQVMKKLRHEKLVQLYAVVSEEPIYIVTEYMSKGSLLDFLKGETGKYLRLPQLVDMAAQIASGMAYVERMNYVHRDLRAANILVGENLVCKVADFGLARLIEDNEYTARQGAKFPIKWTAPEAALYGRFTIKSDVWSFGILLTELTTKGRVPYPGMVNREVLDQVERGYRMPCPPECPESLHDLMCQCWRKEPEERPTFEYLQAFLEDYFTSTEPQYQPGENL

`Cc1nc2c(c(C)c1O)CC(=O)N2` [BJ-2302] was tested. Which pIC50 (CTSS [1]) did it give?
The pIC50 was 5.29.

And the IC90 (Src [2])?
The IC90 was 3.2 µM.

With `CC(C)C[C@H](NC(=O)[C@H](Cc1ccccc1)NC(=O)OCc1ccccc1)C(=O)C=O` [Z-FL-COCHO] as the compound, how does the pIC50 (CTSS [3]) read?
Its pIC50 is 9.72.

How did the “fluorometric CTSS screening kit (BioVision K149), AFC substrate” value (CTSS [4]) turn out when `Cc1nc2[nH]c(=O)[nH]c2c(C)c1O` [BJ-2304] was run?
The value was “BJ-2302 exhibited the strongest suppression of CTSS activity (Fig. 3b), followed by BJ-2304”.

For `COc1ccc(Cl)c(Nc2ncnc3cc(OCC4CCN(C)CC4)c(OC)cc23)c1` [AZM-475271], which IC90 (Src [5]) is on record?
Its IC90 is 27.3 µM.
